Test results from PMC8402619 (Viruses, 2021).
Like-named read-outs stand apart in the source and are kept apart here.

Legend:
[1] = Metabolism in human intestinal S9 fraction; format: in vitro ADME; conditions: [3H]islatravir 5 µM, M4 the only metabolite detected
[2] = Renal clearance after 1 mg/kg intravenous, mouse; format: in vivo, male CD-1 mice; conditions: 1 mg/kg intravenously
CYP3A4 = assay: CYP induction in cryopreserved human hepatocytes; format: in vitro ADME; conditions: for mRNA Mean Fold Change ± SD CYP3A4: 48 h, n = 3 donors, vs DMSO vehicle
[3] = cited from earlier work
MRP3 = target: T1, MRP3 (Homo sapiens, UniProt O15438); assay: Inhibition of ATP-dependent probe uptake in Sf9 membrane vesicles; format: in vitro ADME; conditions: MRP3-mediated ATP-dependent uptake of E217βG
T1 construct: purchased Thermo Fisher Scientific; host or cells: Sf9
T1 sequence (O15438 whole entry): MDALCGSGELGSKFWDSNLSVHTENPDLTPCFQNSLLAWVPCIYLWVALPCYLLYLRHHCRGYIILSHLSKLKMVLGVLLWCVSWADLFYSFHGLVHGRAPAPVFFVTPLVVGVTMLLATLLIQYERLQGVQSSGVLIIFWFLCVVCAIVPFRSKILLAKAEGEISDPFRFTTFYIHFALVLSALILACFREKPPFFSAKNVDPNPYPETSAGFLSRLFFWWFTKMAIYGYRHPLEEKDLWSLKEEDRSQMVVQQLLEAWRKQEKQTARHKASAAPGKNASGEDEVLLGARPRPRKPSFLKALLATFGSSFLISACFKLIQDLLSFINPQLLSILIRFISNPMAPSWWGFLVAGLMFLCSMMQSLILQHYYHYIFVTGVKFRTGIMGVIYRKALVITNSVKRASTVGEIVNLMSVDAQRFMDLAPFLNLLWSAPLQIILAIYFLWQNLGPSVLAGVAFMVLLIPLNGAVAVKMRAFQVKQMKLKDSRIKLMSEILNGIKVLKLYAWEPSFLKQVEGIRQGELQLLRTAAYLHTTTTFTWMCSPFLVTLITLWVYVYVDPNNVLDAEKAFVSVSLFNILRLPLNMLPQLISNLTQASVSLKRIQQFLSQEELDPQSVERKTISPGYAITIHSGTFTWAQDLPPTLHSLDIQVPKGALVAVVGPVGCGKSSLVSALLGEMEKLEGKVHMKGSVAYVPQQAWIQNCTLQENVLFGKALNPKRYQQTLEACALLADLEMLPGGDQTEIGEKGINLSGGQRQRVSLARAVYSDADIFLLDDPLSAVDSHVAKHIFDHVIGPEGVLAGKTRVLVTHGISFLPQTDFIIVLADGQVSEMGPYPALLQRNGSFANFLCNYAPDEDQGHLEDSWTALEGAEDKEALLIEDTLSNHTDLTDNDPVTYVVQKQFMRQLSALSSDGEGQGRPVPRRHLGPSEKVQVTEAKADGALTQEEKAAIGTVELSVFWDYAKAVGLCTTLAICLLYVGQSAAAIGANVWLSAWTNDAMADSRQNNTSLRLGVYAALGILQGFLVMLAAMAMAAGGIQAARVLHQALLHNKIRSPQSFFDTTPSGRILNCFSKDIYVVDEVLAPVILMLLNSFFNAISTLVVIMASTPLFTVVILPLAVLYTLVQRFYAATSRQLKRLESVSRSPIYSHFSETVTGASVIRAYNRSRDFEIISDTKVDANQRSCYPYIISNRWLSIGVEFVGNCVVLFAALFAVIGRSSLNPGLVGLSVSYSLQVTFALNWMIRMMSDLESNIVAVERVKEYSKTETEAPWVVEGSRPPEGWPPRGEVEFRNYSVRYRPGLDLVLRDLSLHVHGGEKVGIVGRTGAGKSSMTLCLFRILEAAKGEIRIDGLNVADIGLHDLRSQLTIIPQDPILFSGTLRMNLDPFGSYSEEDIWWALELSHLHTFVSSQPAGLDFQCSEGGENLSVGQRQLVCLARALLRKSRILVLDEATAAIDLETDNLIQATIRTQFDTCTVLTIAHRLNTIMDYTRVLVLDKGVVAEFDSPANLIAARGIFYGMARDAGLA

BCRP [4] = target: T2, BCRP (Homo sapiens, UniProt Q9UNQ0); assay: Inhibition of BCRP-mediated methotrexate uptake in Sf9 membrane vesicles; format: in vitro ADME; parameters: purchased Thermo Fisher Scientific; host or cells: Sf9
T2 sequence (Q9UNQ0 1-655): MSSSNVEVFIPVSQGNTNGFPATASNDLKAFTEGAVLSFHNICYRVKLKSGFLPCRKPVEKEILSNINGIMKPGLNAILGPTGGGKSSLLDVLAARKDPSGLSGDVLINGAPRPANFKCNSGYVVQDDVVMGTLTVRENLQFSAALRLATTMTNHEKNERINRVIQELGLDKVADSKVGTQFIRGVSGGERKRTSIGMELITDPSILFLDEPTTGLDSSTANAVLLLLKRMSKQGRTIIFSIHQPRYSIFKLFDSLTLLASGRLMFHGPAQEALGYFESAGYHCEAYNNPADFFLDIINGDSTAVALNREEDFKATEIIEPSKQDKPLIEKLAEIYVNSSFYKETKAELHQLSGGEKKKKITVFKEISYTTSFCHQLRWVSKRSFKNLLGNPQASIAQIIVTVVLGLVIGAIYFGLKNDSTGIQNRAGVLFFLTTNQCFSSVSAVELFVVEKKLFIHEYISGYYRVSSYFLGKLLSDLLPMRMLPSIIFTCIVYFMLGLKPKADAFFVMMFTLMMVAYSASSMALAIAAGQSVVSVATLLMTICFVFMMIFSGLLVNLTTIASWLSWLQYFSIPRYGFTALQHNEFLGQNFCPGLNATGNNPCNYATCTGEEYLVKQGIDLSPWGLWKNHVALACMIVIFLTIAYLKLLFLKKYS

CYP2D6 = CYP2D6 (Homo sapiens, UniProt P10635); assay: Reversible CYP inhibition in pooled human liver microsomes; format: in vitro ADME
CYP2D6, sequence (P10635 whole entry): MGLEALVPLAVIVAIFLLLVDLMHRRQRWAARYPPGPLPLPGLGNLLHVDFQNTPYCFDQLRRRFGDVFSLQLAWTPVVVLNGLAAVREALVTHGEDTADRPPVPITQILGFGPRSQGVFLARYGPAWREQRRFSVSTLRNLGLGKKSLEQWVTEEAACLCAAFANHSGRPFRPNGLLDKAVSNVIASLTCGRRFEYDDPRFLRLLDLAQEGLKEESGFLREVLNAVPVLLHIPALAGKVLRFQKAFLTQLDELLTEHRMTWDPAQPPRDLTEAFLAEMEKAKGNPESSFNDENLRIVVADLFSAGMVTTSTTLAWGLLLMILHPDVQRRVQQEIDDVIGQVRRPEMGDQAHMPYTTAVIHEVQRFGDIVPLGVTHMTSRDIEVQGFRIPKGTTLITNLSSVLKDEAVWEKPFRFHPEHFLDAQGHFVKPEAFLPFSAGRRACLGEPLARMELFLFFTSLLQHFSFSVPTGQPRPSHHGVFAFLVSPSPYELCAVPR

CYP2B6 = target: T3, CYP2B6 (Homo sapiens, UniProt P20813); assay: Time-dependent CYP inhibition in pooled human liver microsomes; format: in vitro ADME
T3 sequence (P20813 1-491): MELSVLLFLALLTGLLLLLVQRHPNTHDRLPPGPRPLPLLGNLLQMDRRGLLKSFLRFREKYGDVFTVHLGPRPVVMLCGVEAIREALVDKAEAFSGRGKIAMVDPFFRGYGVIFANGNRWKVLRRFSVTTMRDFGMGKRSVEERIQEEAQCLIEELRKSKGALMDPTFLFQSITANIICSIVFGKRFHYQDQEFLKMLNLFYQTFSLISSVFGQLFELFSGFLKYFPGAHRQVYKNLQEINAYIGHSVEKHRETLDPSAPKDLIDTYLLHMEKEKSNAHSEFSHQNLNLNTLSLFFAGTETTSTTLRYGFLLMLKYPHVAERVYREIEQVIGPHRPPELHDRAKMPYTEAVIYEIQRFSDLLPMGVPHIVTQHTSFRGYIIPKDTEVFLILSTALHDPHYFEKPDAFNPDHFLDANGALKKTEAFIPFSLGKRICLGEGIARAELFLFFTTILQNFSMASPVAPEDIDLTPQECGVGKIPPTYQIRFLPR

MDR1 P-gp = MDR1 P-gp (Homo sapiens, UniProt P08183); assay: Uptake in MDR1 P-gp-containing Sf9 membrane vesicles (substrate); format: in vitro ADME; parameters: expressed in transfected cells
MDR1 P-gp, sequence (P08183 whole entry): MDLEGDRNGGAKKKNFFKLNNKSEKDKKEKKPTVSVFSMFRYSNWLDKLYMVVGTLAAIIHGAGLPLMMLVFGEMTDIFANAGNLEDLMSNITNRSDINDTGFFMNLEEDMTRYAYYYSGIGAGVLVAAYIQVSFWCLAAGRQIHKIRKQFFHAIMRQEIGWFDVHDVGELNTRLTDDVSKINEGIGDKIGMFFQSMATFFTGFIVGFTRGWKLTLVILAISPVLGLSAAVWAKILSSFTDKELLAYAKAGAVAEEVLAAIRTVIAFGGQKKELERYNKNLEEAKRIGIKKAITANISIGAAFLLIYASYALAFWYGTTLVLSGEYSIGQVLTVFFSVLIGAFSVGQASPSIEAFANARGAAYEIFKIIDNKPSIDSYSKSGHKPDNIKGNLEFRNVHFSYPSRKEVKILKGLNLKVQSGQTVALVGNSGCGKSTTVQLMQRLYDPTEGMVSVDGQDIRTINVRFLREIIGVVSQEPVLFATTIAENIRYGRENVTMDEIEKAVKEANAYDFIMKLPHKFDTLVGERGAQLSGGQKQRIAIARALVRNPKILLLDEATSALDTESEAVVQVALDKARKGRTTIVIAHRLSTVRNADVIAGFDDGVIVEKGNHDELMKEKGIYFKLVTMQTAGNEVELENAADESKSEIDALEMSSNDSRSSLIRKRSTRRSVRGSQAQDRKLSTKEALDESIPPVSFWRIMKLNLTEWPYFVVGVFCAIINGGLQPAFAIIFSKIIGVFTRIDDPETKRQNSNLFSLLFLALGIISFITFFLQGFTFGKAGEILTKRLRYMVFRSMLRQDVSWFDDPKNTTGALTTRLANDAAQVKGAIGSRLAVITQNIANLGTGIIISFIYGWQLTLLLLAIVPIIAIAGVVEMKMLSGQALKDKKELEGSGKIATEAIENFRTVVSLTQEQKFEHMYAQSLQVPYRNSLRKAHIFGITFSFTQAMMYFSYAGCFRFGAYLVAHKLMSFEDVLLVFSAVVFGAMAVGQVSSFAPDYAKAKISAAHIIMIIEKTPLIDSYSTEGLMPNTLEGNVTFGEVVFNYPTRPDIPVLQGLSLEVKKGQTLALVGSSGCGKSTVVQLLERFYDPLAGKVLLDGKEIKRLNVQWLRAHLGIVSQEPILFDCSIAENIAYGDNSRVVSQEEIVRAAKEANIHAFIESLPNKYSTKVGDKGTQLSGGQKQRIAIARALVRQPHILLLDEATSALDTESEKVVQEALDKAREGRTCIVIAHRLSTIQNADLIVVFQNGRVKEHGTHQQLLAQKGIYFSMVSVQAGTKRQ

CYP2C19 = CYP2C19 (Homo sapiens, UniProt P33261); assay: Time-dependent CYP inhibition in pooled human liver microsomes; format: in vitro ADME
CYP2C19, sequence (P33261 whole entry): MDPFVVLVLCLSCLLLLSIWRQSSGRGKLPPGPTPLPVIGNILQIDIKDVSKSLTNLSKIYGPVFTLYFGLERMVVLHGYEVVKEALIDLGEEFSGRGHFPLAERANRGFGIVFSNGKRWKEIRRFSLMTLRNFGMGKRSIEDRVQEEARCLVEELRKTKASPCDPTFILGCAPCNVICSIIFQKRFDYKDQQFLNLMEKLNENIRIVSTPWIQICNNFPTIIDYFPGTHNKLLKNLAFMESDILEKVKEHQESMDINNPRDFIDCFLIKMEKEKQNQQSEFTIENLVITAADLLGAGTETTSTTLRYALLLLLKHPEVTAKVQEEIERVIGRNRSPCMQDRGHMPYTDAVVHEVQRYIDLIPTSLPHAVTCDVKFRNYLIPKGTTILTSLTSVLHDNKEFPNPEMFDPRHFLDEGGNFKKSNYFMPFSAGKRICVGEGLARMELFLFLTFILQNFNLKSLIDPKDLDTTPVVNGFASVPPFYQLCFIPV

BCRP [5] = target: T2, BCRP; assay: Bidirectional transport across MDCKII and MDCKII-BCRP cell monolayers; format: in vitro ADME; parameters: expressed in transfected cells; host or cells: MDCKII; conditions: for efflux ratio at 3 h, 2 µM: human
BSEP = target: T4, BSEP (Homo sapiens, UniProt O95342); assay: Inhibition of ATP-dependent probe uptake in Sf9 membrane vesicles; format: in vitro ADME; conditions: BSEP-mediated ATP-dependent uptake of taurocholic acid
T4 construct: purchased Thermo Fisher Scientific; host or cells: Sf9
T4 sequence (O95342 whole entry): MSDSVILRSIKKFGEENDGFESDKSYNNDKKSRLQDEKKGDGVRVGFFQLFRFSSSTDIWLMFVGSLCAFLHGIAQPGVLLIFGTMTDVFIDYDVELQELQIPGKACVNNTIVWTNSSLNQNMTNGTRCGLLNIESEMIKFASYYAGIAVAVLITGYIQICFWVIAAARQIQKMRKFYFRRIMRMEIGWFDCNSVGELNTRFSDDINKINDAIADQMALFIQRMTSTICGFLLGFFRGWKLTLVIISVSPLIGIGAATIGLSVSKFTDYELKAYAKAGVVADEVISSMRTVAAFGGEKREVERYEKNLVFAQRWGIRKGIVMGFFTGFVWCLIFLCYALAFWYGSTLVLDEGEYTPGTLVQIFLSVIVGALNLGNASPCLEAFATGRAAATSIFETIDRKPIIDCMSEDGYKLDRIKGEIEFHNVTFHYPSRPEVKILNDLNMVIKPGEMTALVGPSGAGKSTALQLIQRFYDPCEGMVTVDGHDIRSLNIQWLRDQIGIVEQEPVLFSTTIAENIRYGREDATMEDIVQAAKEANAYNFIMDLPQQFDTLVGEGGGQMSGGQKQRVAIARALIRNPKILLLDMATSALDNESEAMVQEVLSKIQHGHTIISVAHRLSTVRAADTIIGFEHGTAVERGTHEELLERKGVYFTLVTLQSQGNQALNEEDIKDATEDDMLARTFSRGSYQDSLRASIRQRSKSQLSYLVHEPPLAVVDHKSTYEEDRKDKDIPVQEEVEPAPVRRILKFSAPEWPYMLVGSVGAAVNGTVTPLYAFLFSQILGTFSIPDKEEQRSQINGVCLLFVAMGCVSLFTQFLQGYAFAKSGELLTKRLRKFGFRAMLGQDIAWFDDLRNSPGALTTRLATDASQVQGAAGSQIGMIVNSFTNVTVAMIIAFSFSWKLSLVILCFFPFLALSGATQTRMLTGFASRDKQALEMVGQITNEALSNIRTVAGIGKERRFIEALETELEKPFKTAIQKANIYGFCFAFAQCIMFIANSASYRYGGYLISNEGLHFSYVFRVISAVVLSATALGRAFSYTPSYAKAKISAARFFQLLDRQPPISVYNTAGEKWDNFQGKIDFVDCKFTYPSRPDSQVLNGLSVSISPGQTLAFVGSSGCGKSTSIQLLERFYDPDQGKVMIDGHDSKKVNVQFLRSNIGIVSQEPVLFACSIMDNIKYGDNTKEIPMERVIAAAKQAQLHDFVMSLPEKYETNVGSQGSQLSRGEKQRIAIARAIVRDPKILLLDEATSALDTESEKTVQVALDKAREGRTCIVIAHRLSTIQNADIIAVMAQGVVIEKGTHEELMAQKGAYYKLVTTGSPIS

[6] = [14C]islatravir 5 µM, presence of ATP, 10 min, mean ± standard deviation

C#C[C@]1(CO)O[C@@H](n2cnc3c(N)nc(F)nc32)C[C@@H]1O [Islatravir, 4′-Ethynyl-2-fluoro-2′-deoxyadenosine]
turnover [1]: low turnover | Renal Excretion (% Total Plasma Clearance) [2]: 61% | CL renal ([2]; male, CD-1, plasma and urine, iv, urine 0-24 h): 15.4 mL/min/kg | mRNA Mean Fold Change ± SD CYP3A4 (CYP3A4; 0.1 µM): 0.6 ± 0.2 | mRNA Mean Fold Change ± SD CYP3A4 (CYP3A4; 0.5 µM): 0.6 ± 0.2 | mRNA Mean Fold Change ± SD CYP3A4 (CYP3A4; 1 µM): 0.6 ± 0.2 | mRNA Mean Fold Change ± SD CYP3A4 (CYP3A4; 5 µM): 0.5 ± 0.1 | mRNA Mean Fold Change ± SD CYP3A4 (CYP3A4; 10 µM): 0.6 ± 0.1 | mRNA Mean Fold Change ± SD CYP3A4 (CYP3A4; 20 µM): 0.1 ± 0.1 | mRNA response relative to positive control (CYP3A4; CYP3A4, each tested concentration 0.1-20 µM): less than 20% | enzyme activity, fold of solvent control (CYP3A4; CYP3A4 testosterone 6β-hydroxylation, all islatravir concentrations): ≤ 1.1 fold | drug-drug interaction, PK ([3]; co-administered with doravirine): no clinically meaningful effects on the PK of either drug | drug-drug interaction ([3]; co-administration with levonorgestrel/ethinyl estradiol): No significant drug–drug interactions | drug-drug interaction, PK ([3]; with tenofovir disoproxil fumarate and dolutegravir): no meaningful drug–drug interactions | IC50 (MRP3): > 100 µM | DDI Potential (BCRP [4]; BCRP inhibition, FDA, EMA, PMDA guidance): Low risk | IC50 (BCRP [4]; BCRP-mediated methotrexate uptake, read-out: Islatravir IC50): > 100 µM | Maximum Unbound Plasma Concentration (Imax,u) to IC50 Ratio (BCRP [4]; BCRP, 60 mg, Cmax 1.01 µM, fu,p 0.96): <0.010 µM | Intestinal Concentration (Igut) to IC50 Ratio (BCRP [4]; BCRP, Igut = 60 mg/250 mL = 818 µM): <8.2 µM | inhibition at 5 min, 100 µM (BCRP [4]; human, BCRP-containing Sf9 membrane vesicles, probe [3H]methotrexate, 100 µM islatravir, membrane vesicle assay): 35% | DDI Potential (CYP2D6; CYP2D6 reversible inhibition, FDA, EMA, PMDA guidance): Low risk | Maximum Unbound Plasma Concentration (Imax,u) to Ki,u Ratio (CYP2D6; CYP2D6 reversible, 60 mg, Cmax 1.01 µM, fu,p 0.96, Ki,u = IC50/2): <0.019 µM | IC50 (CYP2D6; reversible, CYP2D6 dextromethorphan O-demethylation, read-out: Islatravir IC50): > 100 µM | time-dependent inhibition (CYP2B6; CYP2B6, pre-incubation of 10 and 50 µM for up to 30 min): no time-dependent inhibition | DDI Potential (CYP2B6; CYP2B6 time dependent inhibition): Low risk ^h | IC50 (CYP2B6; time dependent, CYP2B6, read-out: Islatravir IC50): > 50 µM | uptake into control vesicles (MDR1 P-gp; [6]): 5.7 ± 2.1 pmole/mg protein | uptake into membrane vesicles containing MDR1 P-gp (MDR1 P-gp; [6]): 3.7 ± 1.3 pmole/mg protein | MDR1 P-gp substrate assessment (MDR1 P-gp; uptake not ATP-dependent): not a substrate of MDR1 P-gp | time-dependent inhibition (CYP2C19; CYP2C19, pre-incubation of 10 and 50 µM for up to 30 min): no time-dependent inhibition | DDI Potential (CYP2C19; CYP2C19 time dependent inhibition): Low risk ^h | IC50 (CYP2C19; time dependent, CYP2C19, read-out: Islatravir IC50): > 50 µM | BCRP substrate assessment (BCRP [5]; bi-directional transport assay): substrate of BCRP | Papp at 3 h, 2 µM (BCRP [5]; dog, MDCK, MDCKII cells, read-out: apparent permeability coefficient (Papp)): 1.6 to 2.2 ×10⁻⁶ cm/s | efflux ratio at 2 µM (BCRP [5]; dog, MDCK, islatravir 2 µM, untransfected control cells, mean ± SEM, read-out: mean Papp(B to A)/Papp(A to B) efflux ratio): 0.8 ± 0.2 | efflux ratio at 3 h, 2 µM (BCRP [5]; islatravir 2 µM, BCRP-transfected monolayers with Ko143 (5 µM), mean ± SEM, read-out: mean Papp(B to A)/Papp(A to B) efflux ratio): 0.9 ± 0.1 | efflux ratio at 3 h, 2 µM (BCRP [5]; islatravir 2 µM, BCRP-transfected monolayers, mean ± SEM, read-out: mean Papp(B to A)/Papp(A to B) efflux ratio): 4.3 ± 1.1 | IC50 (BSEP): > 100 µM
